Test results: doi:10.1101/2024.04.09.588698v1 (biorxiv, 2024)
Numbering of substitutions follows the chain as printed.

Assays:
Htc10-LBD [1] = target: T1, Htc10-LBD (Vreelandella titanicae, UniProt L9UCI1); conditions: Biolog plate screen, est. 3-6 mM; binder
T1 sequence (L9UCI1 48-325): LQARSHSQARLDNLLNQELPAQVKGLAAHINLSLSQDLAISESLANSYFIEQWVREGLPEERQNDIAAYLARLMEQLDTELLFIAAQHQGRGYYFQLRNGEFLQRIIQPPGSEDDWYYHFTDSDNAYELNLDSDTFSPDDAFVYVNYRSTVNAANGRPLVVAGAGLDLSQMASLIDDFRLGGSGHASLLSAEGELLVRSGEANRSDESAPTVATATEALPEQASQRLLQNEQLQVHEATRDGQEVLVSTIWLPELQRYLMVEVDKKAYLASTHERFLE

Htc10-LBD [2] = target: T1, Htc10-LBD; assay: biochemical; conditions: read-out: ΔTm (ºC) 10 mM solution
Htc10-LBD [3] = target: T1, Htc10-LBD; assay: isothermal titration calorimetry; type: binding
Htc10-LBD [4] = target: T2, Htc10-LBD (Vreelandella titanicae, UniProt L9UCI1, D179A/N177A/Y141F); assay: isothermal titration calorimetry; type: binding
T2 sequence (L9UCI1 48-325 Y141F/N177A/D179A): T1 sequence (L9UCI1 48-325) with Y94F, N130A, D132A

Htc10-LBD [5] = target: T1, Htc10-LBD; assay: biochemical
Htc10-LBD [6] = target: T3, Htc10-LBD (Vreelandella titanicae, UniProt L9UCI1, Y141F); assay: isothermal titration calorimetry; type: binding
T3 sequence (L9UCI1 48-325 Y141F): T1 sequence (L9UCI1 48-325) with Y94F

Row | Structure (SMILES) | ΔTm (ºC) Biolog plates (Htc10-LBD [1]) | ΔTm at 10000 µM (Htc10-LBD [2]) | further results
1 | O=c1[nH]c(=O)c2nc[nH]c2[nH]1 [Xanthine] | 2.5 degC | -8 °C | 
2 | Cc1cn([C@H]2C[C@H](O)[C@@H](CO)O2)c(=O)[nH]c1=O [Thymidine] | 2.0 degC | 0 °C | 
3 | Nc1nc2c(ncn2[C@@H]2O[C@H](CO)[C@@H](O)[C@H]2O)c(=O)[nH]1 [Guanosine] | 2.5 degC | 0.5 °C | 
4 | O=c1cc[nH]c(=O)[nH]1 [Uracil] |  | 3 °C | 
5 | Cc1c[nH]c(=O)[nH]c1=O [Thymine] | 2.0 degC | 1.7 °C | 
6 | O=c1[nH]cnc2c1ncn2[C@H]1C[C@H](O)[C@@H](CO)O1 [2-deoxy-inosine] | 6.5 degC |  | 
7 | O=c1[nH]cnc2nc[nH]c12 [hypoxanthine] | 8.0 degC | 16 °C | Kd (Htc10-LBD [3]): 2.5 ± 0.3 µM; Kd (Htc10-LBD [4]): 140 ± 9 µM; ΔTm at 500 µM (Htc10-LBD [5]; read-out: ΔTm (ºC) hyp): 10.6 °C; Kd (Htc10-LBD [6]): 13.9 ± 0.9 µM
8 | Nc1nc2nc[nH]c2c(=O)[nH]1 [guanine] |  | 6 °C | Kd (Htc10-LBD [3]): 7 ± 0.6 µM; Kd (Htc10-LBD [4]): 118 ± 9 µM; ΔTm at 600 µM (Htc10-LBD [5]; read-out: ΔTm (ºC) gua): 5.2 °C; Kd (Htc10-LBD [6]): 25 ± 2 µM
9 | O=c1[nH]cnc2c1ncn2[C@@H]1O[C@H](CO)[C@@H](O)[C@H]1O [Inosine] |  | 3 °C | 
